Measurements reported in ChEMBL document CHEMBL1128669, “The furoxan system as a useful tool for balancing "hybrids" with mixed alpha 1-antagonist and NO-like vasodilator activities” (J Med Chem, 1995).

Assays:
[1] = biological target: T1, Alpha-1D adrenergic receptor (Rattus norvegicus, UniProt P23944); test: Partial affinity towards Alpha-1 adrenergic receptor was assessed on rat aortic strips
T1 sequence (P23944 whole entry): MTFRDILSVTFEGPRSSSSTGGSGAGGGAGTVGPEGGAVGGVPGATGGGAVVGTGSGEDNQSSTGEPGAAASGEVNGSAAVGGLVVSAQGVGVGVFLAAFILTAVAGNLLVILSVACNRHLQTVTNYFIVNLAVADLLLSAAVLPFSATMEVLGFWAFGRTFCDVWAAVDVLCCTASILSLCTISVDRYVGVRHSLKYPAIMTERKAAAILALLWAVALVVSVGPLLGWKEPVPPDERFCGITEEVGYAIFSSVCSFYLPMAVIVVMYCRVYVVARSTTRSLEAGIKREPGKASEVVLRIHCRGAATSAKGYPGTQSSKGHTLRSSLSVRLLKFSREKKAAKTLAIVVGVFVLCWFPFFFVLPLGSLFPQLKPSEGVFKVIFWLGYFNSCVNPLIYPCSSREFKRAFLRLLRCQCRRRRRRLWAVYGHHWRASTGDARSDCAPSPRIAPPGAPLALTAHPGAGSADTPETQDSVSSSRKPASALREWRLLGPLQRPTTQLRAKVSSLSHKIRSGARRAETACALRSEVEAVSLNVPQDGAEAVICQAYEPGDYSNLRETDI

Rattus norvegicus [2] = organism: Rattus norvegicus; test: Inhibition of vasodilating activity was assessed on the rat aortic strips in the absence of HbO2 in vitro
Rattus norvegicus [3] = organism: Rattus norvegicus; test: Inhibition of vasodilating activity was assessed on the epididymal portion of rat vas deferens in the absence of HbO2 in vitro; assay type: functional, organism-based
Rattus norvegicus [4] = organism: Rattus norvegicus; test: Inhibition of vasodilating activity was assessed on the epididymal portion of rat vas deferens in the presence of HbO2 in vitro; assay type: functional
Rattus norvegicus [5] = organism: Rattus norvegicus; test: Inhibition of vasodilating activity was assessed on the rat aortic strips in the presence of HbO2 in vitro

| pA2 [1] | IC50 (Rattus norvegicus [2]) [µM] | IC50 (Rattus norvegicus [3]) [µM] | IC50 (Rattus norvegicus [4]) [µM] | IC50 (Rattus norvegicus [5]) [µM] | SMILES |
| --- | --- | --- | --- | --- | --- |
| 8.55 | 0.63 | – | – | – | COC(=O)c1c(C(=O)N2CCN(c3nc(N)c4cc(OC)c(OC)cc4n3)CC2)no[n+]1[O-] |
| 8.96 | – | 0.052 | 0.61 | – | COc1cc2nc(N3CCC(S(=O)(=O)c4no[n+]([O-])c4-c4ccccc4)CC3)nc(N)c2cc1OC |
| 8.04 | 0.0097 | – | – | 0.081 | COc1cc2nc(N3CCN(C(=O)c4no[n+]([O-])c4C#N)CC3)nc(N)c2cc1OC |
| 9.17 | – | – | – | – | COc1cc2nc(N3CCC(S(=O)(=O)c4nonc4-c4ccccc4)CC3)nc(N)c2cc1OC |
| 8.25 | 2.5 | – | – | – | COc1cc2nc(N3CCN(C(=O)c4no[n+]([O-])c4C(N)=O)CC3)nc(N)c2cc1OC |
| 8.49 | – | 0.095 | 0.7 | – | COc1cc2nc(N3CCC(S(=O)(=O)c4c(-c5ccccc5)no[n+]4[O-])CC3)nc(N)c2cc1OC |
